Experimental data as given in the supplement of paper PMC10307832.

Assays:
Assay in all cases: relative viability (nuclei count vs DMSO), 5 days (fraction); higher = more cells survive
[1] = compound: C[C@@H](C(=O)N[C@@H](C1CCCCC1)C(=O)N2CCC[C@H]2C(=O)N[C@@H]3[C@@H](CC4=CC=CC=C34)OCC#CC#CCO[C@@H]5CC6=CC=CC=C6[C@@H]5NC(=O)[C@@H]7CCCN7C(=O)[C@H](C8CCCCC8)NC(=O)[C@H](C)NC)NC [AZD5582] + O=C(c1cc(Cc2n[nH]c(=O)c3ccccc23)ccc1F)N1CCN(C(=O)C2CC2)CC1 [Olaparib] (partner 8 µM)
In short: (§1)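 Lung cancer cell lines in 1536-well plates were dosed by pin tool the day after seeding, either with one drug alone or with a fixed anchor-drug dose plus five library-drug doses (not always all listed) in √10 steps. After 5 days, cells were fixed and their nuclei stained in one step (final 0.05% Triton X-100, 1% formaldehyde, 1 ug/ml Hoechst), then counted on 4× images. Relative viability is the nuclei count in treated wells divided by that in vehicle wells. Values are medians of duplicate plates.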

[2] = compound: Cn1nnc2c(C(N)=O)ncn2c1=O [Temozolomide] + COc1cccc2cc(-c3nc([C@H]4CC[C@H](C(=O)O)CC4)n4ncnc(N)c34)[nH]c12 [OSI-027] (partner 0.5 µM)
In short: as §1

[3] = compound: Cn1nnc2c(C(N)=O)ncn2c1=O [Temozolomide] + CC(=O)Nc1cccc(-n2c(=O)n(C3CC3)c(=O)c3c(Nc4ccc(I)cc4F)n(C)c(=O)c(C)c32)c1 [Trametinib] (partner 0.02 µM)
In short: as §1

[4] = compound: Cn1nnc2c(C(N)=O)ncn2c1=O [Temozolomide] + C[C@@H](Oc1cc(-c2cnn(C3CCNCC3)c2)cnc1N)c1c(Cl)ccc(F)c1Cl [Crizotinib] (partner 1 µM)
In short: as §1

Row | Cell Line | relative viability ([1]; first compound 0.001581 µM) | relative viability ([1]; first compound 0.005 µM) | relative viability ([1]; first compound 0.01581 µM) | relative viability ([1]; first compound 0.05 µM) | relative viability ([2]; first compound 0.2 µM) | relative viability ([2]; first compound 0.6325 µM) | relative viability ([2]; first compound 2 µM) | relative viability ([2]; first compound 6.325 µM) | relative viability ([2]; first compound 20 µM) | relative viability ([3]; first compound 0.2 µM) | relative viability ([3]; first compound 0.6325 µM) | relative viability ([3]; first compound 2 µM) | relative viability ([3]; first compound 6.325 µM) | relative viability ([3]; first compound 20 µM) | relative viability ([4]; first compound 0.2 µM) | relative viability ([4]; first compound 0.6325 µM) | relative viability ([4]; first compound 2 µM) | relative viability ([4]; first compound 6.325 µM) | relative viability ([4]; first compound 20 µM)
1 | NCI-H1792 | 0.343 | 0.466 | 0.337 | 0.409 | 0.552 | 0.739 | 0.689 | 0.681 | 0.736 | 0.389 | 0.441 | 0.471 | 0.317 | 0.517 | 0.957 | 1.05 | 1 | 0.76 | 0.972
2 | NCI-H2023 | 0.401 | 0.381 | 0.48 | 0.412 | 0.375 | 0.39 | 0.475 | 0.329 | 0.413 | 0.568 | 0.635 | 0.468 | 0.497 | 0.518 | 0.64 | 0.631 | 0.678 | 0.516 | 0.648
3 | LU99A | 0.279 | 0.264 | 0.213 | 0.266 | 0.27 | 0.317 | 0.321 | 0.283 | 0.306 | 0.555 | 0.522 | 0.6 | 0.555 | 0.61 | 0.592 | 0.601 | 0.6 | 0.557 | 0.515
4 | SW 1573 | 0.376 | 0.523 | 0.628 | 0.684 | 0.672 | 0.66 | 0.734 | 0.608 | 0.721 | 0.688 | 0.504 | 0.56 | 0.583 | 0.474 | 0.801 | 0.787 | 0.82 | 0.594 | 0.846
5 | COR-L23 | 0.307 | 0.378 | 0.32 | 0.329 | 1.01 | 0.714 | 0.766 | 0.814 | 0.652 | 0.624 | 0.614 | 0.641 | 0.534 | 0.545 | 0.925 | 0.701 | 0.669 | 0.503 | 0.614
6 | NCI-H23 | 0.272 | 0.203 | 0.3 | 0.236 | 0.547 | 0.682 | 0.565 | 0.59 | 0.461 | 0.353 | 0.348 | 0.427 | 0.381 | 0.358 | 0.464 | 0.528 | 0.509 | 0.432 | 0.547
7 | ChaGo-K-1 | 0.435 | 0.41 | 0.421 | 0.442 | 0.623 | 0.543 | 0.685 | 0.508 | 0.554 | 0.959 | 0.87 | 0.967 | 0.9 | 0.887 | 1.3 | 1.16 | 1.15 | 0.646 | 1.12
8 | NCI-H1944 | 0.379 | 0.403 | 0.365 | 0.446 | 0.428 | 0.378 | 0.474 | 0.377 | 0.382 | 0.367 | 0.402 | 0.435 | 0.426 | 0.362 | 0.817 | 1.08 | 1.18 | 1.06 | 0.975
9 | NCI-H322M | 0.745 | 0.865 | 0.692 | 0.882 |  | 0.525 | 0.569 | 0.54 | 0.433 | 0.446 | 0.526 | 0.569 | 0.532 | 0.451 |  | 0.976 | 1 | 0.882 | 0.715
10 | EMC-BAC-2 | 0.43 | 0.446 | 0.437 | 0.446 | 0.454 | 0.355 | 0.369 | 0.396 | 0.419 | 0.906 | 0.891 | 0.916 | 0.891 | 0.85 | 0.842 | 0.74 | 0.789 | 0.768 | 0.804
11 | NCI-H3122 | 0.634 | 0.557 | 0.641 | 0.537 | 0.404 | 0.995 | 1.33 | 0.949 | 1.03 | 0.222 | 0.291 | 0.246 | 0.251 | 0.242 | 0.291 | 0.281 | 0.324 | 0.264 | 0.235
12 | NCI-H520 | 0.302 | 0.274 | 0.382 | 0.365 | 0.211 | 0.298 | 0.255 | 0.271 | 0.239 | 0.715 | 0.717 | 0.676 | 0.683 | 0.597 | 0.763 | 0.955 | 0.811 | 0.939 | 0.947
13 | HARA | 0.76 | 0.761 | 0.812 | 0.841 | 0.318 | 0.656 | 0.558 | 0.439 | 0.226 | 0.717 | 0.601 | 0.886 | 0.89 | 0.441 | 1.04 | 1.05 | 1.15 | 1.01 | 0.949
14 | NCI-H1650 | 0.758 | 0.668 | 0.813 | 0.834 | 0.638 | 0.788 | 0.651 | 0.596 | 0.409 | 0.618 | 0.654 | 0.611 | 0.642 | 0.39 | 1.08 | 1.12 | 1.05 | 0.9 | 0.799
15 | NCI-H358 | 0.56 | 0.702 | 0.616 | 0.791 | 0.437 | 0.795 | 0.697 | 0.689 | 0.583 | 0.108 | 0.143 | 0.131 | 0.139 | 0.145 | 0.785 | 0.62 | 0.686 | 0.552 | 0.559
16 | NCI-H2347 | 0.496 | 0.624 | 0.581 | 0.525 | 0.338 | 0.428 | 0.501 | 0.376 | 0.432 | 0.26 | 0.291 | 0.28 | 0.289 | 0.244 | 0.695 | 0.712 | 0.715 | 0.651 | 0.645
17 | UMC-11 | 0.369 | 0.375 | 0.399 | 0.381 | 0.554 | 0.469 | 0.566 | 0.467 | 0.447 | 0.728 | 0.749 | 0.786 | 0.643 | 0.519 | 0.774 | 0.646 | 0.692 | 0.632 | 0.333
